For 35 compounds, IC50 and inhibition results are on record in ChEMBL document CHEMBL5500426, “Directly Suppressing MYC Function with Novel Alkynyl-Substituted Phenylpyrazole Derivatives that Induce Protein Degradation and Perturb MYC/MAX Interaction” (J Med Chem, 2024).

pIC50: −log10 of the molar value. Active and inactive are the calls of the source. The calls are words filed in the database; no cut-off is given here.

One data set deals with PC-3. Nature of the data set: Antiproliferative activity against human PC-3 cells assessed as inhibition of cell growth incubated for 72 hrs by MTT assay. It counts as functional, cell-based. The note with it: PC-3, 72 h.
A short description of data set [1]: Cytotoxicity against human HUVEC cells assessed as inhibition of cell growth incubated for 72 hrs by MTT assay. It is filed as toxicity, cell-based.
Data set [2] can be described thus: Cytotoxicity against human GES1 cells assessed as inhibition of cell growth incubated for 72 hrs by MTT assay. It is filed as toxicity, cell-based.
For a further data set, the system named is MDA-MB-231. Nature of the data set: Antiproliferative activity against human MDA-MB-231 cells assessed as inhibition of cell growth incubated for 72 hrs by MTT assay. The note with it: MDA-MB-231, 72 h. It is filed as functional, cell-based.
A further data set has as its system MDA-MB-468. Nature of the data set: Antiproliferative activity against human MDA-MB-468 cells assessed as inhibition of cell growth incubated for 72 hrs by MTT assay. It counts as functional, cell-based. Particulars: MDA-MB-468, 72 h.
In another data set the test system is SK-N-BE(2). Nature of the data set: Antiproliferative activity against human SK-N-BE(2) cells assessed as inhibition of cell growth incubated for 72 hrs by MTT assay. It is filed as functional, cell-based. The note with it: SKNBE2, 72 h.
The next data set concerns A549. Nature of the data set: Antiproliferative activity against human A549 cells assessed as inhibition of cell growth incubated for 72 hrs by MTT assay. It counts as functional, cell-based. The note with it: A549, 72 h.
In another data set the test system is HCT-116. Description: Antiproliferative activity against human HCT-116 cells assessed as inhibition of cell growth incubated for 72 hrs by MTT assay. It is filed as functional, cell-based. Particulars: HCT-116, 72 h.
For a further data set, the system named is SGC-7901. Nature of the data set: Antiproliferative activity against human SGC-7901 cells assessed as inhibition of cell growth incubated for 72 hrs by MTT assay. Particulars: SGC-7901, 72 h. It is filed as functional, cell-based.
Another data set deals with SK-OV-3. Nature of the data set: Antiproliferative activity against human SK-OV-3 cells assessed as inhibition of cell growth incubated for 72 hrs by MTT assay. It is filed as functional, cell-based. Particulars: SK-OV-3, 72 h.
A further data set deals with HepG2. Nature of the data set: Antiproliferative activity against human HepG2 cells assessed as inhibition of cell growth incubated for 72 hrs by MTT assay. The note with it: HepG2, 72 h. It counts as functional, cell-based.
A further data set has as its system HL-60. Description: Antiproliferative activity against human HL-60 cells assessed as inhibition of cell growth incubated for 72 hrs by MTT assay. It is filed as functional, cell-based. Particulars: HL-60, 72 h.
In a further data set the test system is MV4-11. Description: Antiproliferative activity against human MV4-11 cells assessed as inhibition of cell growth incubated for 72 hrs by MTT assay. It counts as functional, cell-based. The note with it: MV4-11, 72 h.
Data set [3] concerns the target Myc proto-oncogene protein (Homo sapiens) (UniProt P01106). Nature of the data set: Inhibition of MYC in human PC-3 cells assessed as downregulation of MYC expression incubated for 24 hrs by Western blotting analysis. It counts as cell-based.
Data set [4] has the same target. Nature of the data set: Inhibition of MYC in human PC-3 cells assessed as downregulation of MYC expression at 1 uM incubated for 24 hrs by Western blotting analysis relative to control. It counts as cell-based.
Data set [5] concerns the target c-Myc/c-Max (Homo sapiens) (UniProt P01106+P61244). Nature of the data set: Inhibition of MYC/MAX protein-protein interaction in human PC-3 cells at 10 uM incubated for 1 hr by Co-immunoprecipitation based immunoblotting analysis. It counts as cell-based.
The subject of another data set is Myc-CaP. Nature of the data set: Antiproliferative activity against mouse Myc-CaP cells assessed as inhibition of cell growth incubated for 72 hrs by MTT assay. It is filed as functional, cell-based.

Chain of Myc proto-oncogene protein (Homo sapiens) (P01106 whole entry): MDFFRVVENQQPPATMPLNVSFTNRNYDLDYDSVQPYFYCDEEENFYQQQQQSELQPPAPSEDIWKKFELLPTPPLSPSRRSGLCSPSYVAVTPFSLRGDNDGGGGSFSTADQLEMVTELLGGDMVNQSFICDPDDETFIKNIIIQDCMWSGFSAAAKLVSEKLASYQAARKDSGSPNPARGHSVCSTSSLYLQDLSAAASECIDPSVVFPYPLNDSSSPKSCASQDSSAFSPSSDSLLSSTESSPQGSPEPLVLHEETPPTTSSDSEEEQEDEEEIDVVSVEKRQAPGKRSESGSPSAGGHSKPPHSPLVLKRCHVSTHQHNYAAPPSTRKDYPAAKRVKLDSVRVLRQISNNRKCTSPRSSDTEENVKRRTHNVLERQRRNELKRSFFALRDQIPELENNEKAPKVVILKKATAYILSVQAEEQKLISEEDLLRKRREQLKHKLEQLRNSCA
Chain of c-Myc/c-Max (Homo sapiens) (P01106 whole entry): as above
Chain of c-Myc/c-Max (Homo sapiens) (P61244 2-160 partner limits assumed): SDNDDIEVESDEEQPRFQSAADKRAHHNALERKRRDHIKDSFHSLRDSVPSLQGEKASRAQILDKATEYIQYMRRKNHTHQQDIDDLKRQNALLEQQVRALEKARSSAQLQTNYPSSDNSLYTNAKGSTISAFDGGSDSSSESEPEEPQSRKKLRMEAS

Regarding `CN1CCN(CC#Cc2c(OCc3ccc(Cl)cc3)ccc(-c3cc(C(F)(F)F)nn3C)c2O)CC1`, the pIC50 in the data set with PC-3 is 4.78.

As to `Oc1c(-c2cc(C(F)(F)F)n[nH]2)ccc(OCc2ccc(Cl)cc2)c1C#CCCN1CCCCC1`, in the data set on PC-3, the pIC50 was 5.44.

For `Oc1c(-c2cc(C(F)(F)F)n[nH]2)ccc(OCc2ccc(Cl)cc2)c1C#CCCCN1CCCCC1`, the pIC50 in the data set on PC-3 was 5.35.

For `CC(C)(O)CCC#Cc1c(OCc2ccc(Cl)cc2)ccc(-c2cc(C(F)(F)F)n[nH]2)c1O`, the pIC50 in the data set on PC-3 was 5.17.

Regarding `Oc1c(-c2cc(C(F)(F)F)n[nH]2)ccc(OCc2ccc(Cl)cc2)c1C#CCN1CCN(C2COC2)CC1`, in the data set with PC-3, the pIC50 is 5.08.

`OCCCC#Cc1c(OCc2ccc(Cl)cc2)ccc(-c2cc(C(F)(F)F)n[nH]2)c1O`: the pIC50 in the data set on PC-3 was 4.89.

As to `Cn1nc(C(F)(F)F)cc1-c1ccc(OCc2ccc(Cl)cc2)c(-c2ccc(Cl)c(C(F)(F)F)c2)c1O`, the pIC50 with PC-3 was 5.18; with MDA-MB-231, 5.23; in the data set on MDA-MB-468, 5.15; in the data set with SK-N-BE(2), 5.76; with A549 it was 5.37; in the data set on HCT-116 it was 5.86. For the same compound, the pIC50 in the data set with SGC-7901 was 5.36; with SK-OV-3, 5.76; in the data set on HepG2 it was 5.80; with HL-60 it was 5.42; in the data set on MV4-11, 5.82; in the data set on Myc-CaP, 5.38. The IC50 at 72 h in [1] and in data set [2] was greater than 100 µM each time. In addition, the inhibition result is “Dose-Dependent Effect” in data set [3] and 31% in [4]. Moreover, the inhibition result in data set [5] was “Active”.

In the case of `CN1CCN(CCCC#Cc2c(OCc3ccc(Cl)cc3)ccc(-c3cc(C(F)(F)F)n[nH]3)c2O)CC1`, in the data set on PC-3, the pIC50 is 5.07.

For the compound `Cn1nc(C(F)(F)F)cc1-c1ccc(OCc2ccc(Cl)cc2)c(C#CCN2CCOCC2)c1O`, the pIC50 in the data set on PC-3 is less than 4.00.

As for `CC(C)(O)CCC#Cc1ccc(-c2cc(C(F)(F)F)n[nH]2)c(O)c1-c1ccc(Cl)c(C(F)(F)F)c1`, in the data set with PC-3, the pIC50 was 5.63.

For the compound `Oc1c(-c2cc(C(F)(F)F)n[nH]2)ccc(OCc2ccc(Cl)cc2)c1C#CCN1CCCCC1`, the negative-log IC50 (pIC50) in the data set with PC-3 is 4.36.

As for `OCCC#Cc1c(OCc2ccc(Cl)cc2)ccc(-c2cc(C(F)(F)F)n[nH]2)c1O`, the pIC50 with PC-3 is 4.51.

`Oc1c(-c2cc(C(F)(F)F)n[nH]2)ccc(OCc2ccc(Cl)cc2)c1C#CCCN1CCC(O)CC1`: the pIC50 with PC-3 was 5.22.

As for `Oc1c(-c2cc(C(F)(F)F)n[nH]2)ccc(OCc2ccc(Cl)cc2)c1C#CCCN1CCOCC1`, the pIC50 with PC-3 is 5.07.

As for `CN1CCN(CC#Cc2ccc(-c3cc(C(F)(F)F)n[nH]3)c(O)c2-c2ccc(Cl)c(C(F)(F)F)c2)CC1`, in the data set with PC-3, the pIC50 was 5.38.

As to `Cn1nc(C(F)(F)F)cc1-c1ccc(OCc2ccc(Cl)cc2)c(C#CCCCO)c1O`, the pIC50 in the data set with PC-3 is less than 4.00.

As to `CN1CCN(CCC#Cc2ccc(-c3cc(C(F)(F)F)n[nH]3)c(O)c2-c2ccc(Cl)c(C(F)(F)F)c2)CC1`, in the data set with PC-3, the pIC50 is 5.51.

`Oc1c(-c2cc(C(F)(F)F)n[nH]2)ccc(OCc2ccc(Cl)cc2)c1C#CCN1CCC(N2CCOCC2)CC1`: the pIC50 in the data set with PC-3 was less than 4.00.

Turning to `Cn1nc(C(F)(F)F)cc1-c1ccc(C#CCN2CCOCC2)c(-c2ccc(Cl)c(C(F)(F)F)c2)c1O`, in the data set with PC-3, the pIC50 was 4.23.

As to `Oc1c(-c2cc(C(F)(F)F)n[nH]2)ccc(C#CCN2CCOCC2)c1-c1ccc(Cl)c(C(F)(F)F)c1`, the pIC50 in the data set on PC-3 is 5.69.

`CN1CCN(CCC#Cc2c(OCc3ccc(Cl)cc3)ccc(-c3cc(C(F)(F)F)n[nH]3)c2O)CC1`: the pIC50 with PC-3 was 4.81.

In the case of `CN1CCN(CC#Cc2c(OCc3ccc(Cl)cc3)ccc(-c3cc(C(F)(F)F)n[nH]3)c2O)CC1`, in the data set with PC-3, the pIC50 is 5.16.

For the compound `CN(C)CC#Cc1c(OCc2ccc(Cl)cc2)ccc(-c2cc(C(F)(F)F)n[nH]2)c1O`, in the data set on PC-3, the pIC50 was less than 4.00.

Regarding `Oc1c(-c2cc(C(F)(F)F)n[nH]2)ccc(OCc2ccc(Cl)cc2)c1C#CCN1CCOCC1`, in the data set with PC-3, the pIC50 was 4.14.

Consider `Oc1c(-c2cc(C(F)(F)F)n[nH]2)ccc(OCc2ccc(Cl)cc2)c1C#CCN1CCCC1`, for which the negative logarithm of the IC50 (pIC50) in the data set with PC-3 was less than 4.00.

With `Cn1nc(C(F)(F)F)cc1-c1ccc(C#CCCC(C)(C)O)c(-c2ccc(Cl)c(C(F)(F)F)c2)c1O`, the pIC50 in the data set with PC-3 is 4.52.

On to `Oc1c(-c2cc(C(F)(F)F)n[nH]2)ccc(OCc2ccc(Cl)cc2)c1C#CCCCN1CCOCC1`, for which the pIC50 with PC-3 was 5.00.

Regarding `Oc1c(-c2cc(C(F)(F)F)n[nH]2)ccc(C#CCCN2CC3(COC3)C2)c1-c1ccc(Cl)c(C(F)(F)F)c1`, in the data set with PC-3, the pIC50 was 5.55.

With `Oc1c(-c2cc(C(F)(F)F)n[nH]2)ccc(OCc2ccc(Cl)cc2)c1C#CCN1CC2(COC2)C1`, in the data set on PC-3, the pIC50 is 4.63.

Take `CN1CCN(CC#Cc2ccc(-c3cc(C(F)(F)F)nn3C)c(O)c2-c2ccc(Cl)c(C(F)(F)F)c2)CC1`: the pIC50 in the data set with PC-3 is 4.70.

As to `Oc1c(-c2cc(C(F)(F)F)n[nH]2)ccc(OCc2ccc(Cl)cc2)c1C#CCN1CCC(O)CC1`, in the data set with PC-3, the pIC50 was 4.48.

Consider `Oc1c(-c2cc(C(F)(F)F)n[nH]2)ccc(C#CCCN2CCCCC2)c1-c1ccc(Cl)c(C(F)(F)F)c1`, for which the negative-log IC50 (pIC50) in the data set with PC-3 was 5.47.

In the case of `Oc1c(-c2cc(C(F)(F)F)n[nH]2)ccc(C#CCCN2CCN(C3COC3)CC2)c1-c1ccc(Cl)c(C(F)(F)F)c1`, the pIC50 in the data set on PC-3 is 5.72.

On to `Oc1c(-c2cc(C(F)(F)F)n[nH]2)ccc(OCc2ccc(Cl)cc2)c1C#CCCN1CC2(COC2)C1`, for which the pIC50 in the data set on PC-3 is 5.31.

For the compound `Cn1nc(C(F)(F)F)cc1-c1ccc(C#CCCCO)c(-c2ccc(Cl)c(C(F)(F)F)c2)c1O`, the pIC50 in the data set with PC-3 is 4.18.
